# Experimental data taken from the supplement of paper PMC4862054.
# Assays:
# Settings in all cases: incubation time: 72 h
# MDA-MB-468 [1] = experiment: drug sensitivity score (DSS), CellTiter-Glo (DSS (AUC-based score)); higher = stronger drug effect (viability inhibition or cytotoxicity); extreme values may be limits of the assay
# Procedure, shortened: (§1)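 Breast cancer cell lines were seeded in 20 µl suspension into 384-well plates already holding compound and incubated for 72 h. Each compound was tested at 5 concentrations in 10-fold steps across its own 10,000-fold range. Plates were normalised to 0.1 % DMSO and a positive kill control after CellTox Green and then CellTiter-Glo readings. The area under the fitted dose-response curve served as the basis for the drug sensitivity score.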
# CAL-120 [2] = experiment: as above
# Procedure, shortened: as §1
# BT-549 [3] = experiment: as above
# Procedure, shortened: as §1
# MDA-MB-453 [4] = experiment: as above
# Procedure, shortened: as §1
# MDA-MB-436 = experiment: as above
# Procedure, shortened: as §1
# SK-BR-3 = experiment: as above
# Procedure, shortened: as §1
# MDA-MB-231 [5] = experiment: as above
# Procedure, shortened: as §1
# HCC1937 [6] = experiment: as above
# Procedure, shortened: as §1
# Hs578T = experiment: as above
# Procedure, shortened: as §1
# CAL-148 [7] = experiment: as above
# Procedure, shortened: as §1
# MFM-223 [8] = experiment: as above
# Procedure, shortened: as §1
# CAL-85-1 [9] = experiment: as above
# Procedure, shortened: as §1
# CAL-51 [10] = experiment: as above
# Procedure, shortened: as §1
# HCC1599 [11] = experiment: as above
# Procedure, shortened: as §1
# HDQ-P1 [12] = experiment: as above
# Procedure, shortened: as §1
# BT-474 [13] = experiment: as above
# Procedure, shortened: as §1
# MCF-10A [14] = experiment: as above
# Procedure, shortened: as §1
# HCC1143 [15] = experiment: as above
# Procedure, shortened: as §1
# DU-4475 [16] = experiment: as above
# Procedure, shortened: as §1
# MDA-MB-468 [17] = experiment: drug sensitivity score (DSS), CellTox Green (DSS (AUC-based score)); higher = stronger drug effect (viability inhibition or cytotoxicity); extreme values may be limits of the assay
# Procedure, shortened: as §1
# CAL-120 [18] = experiment: as above
# Procedure, shortened: as §1
# BT-549 [19] = experiment: as above
# Procedure, shortened: as §1
# MDA-MB-453 [20] = experiment: as above
# Procedure, shortened: as §1
# MDA-MB-231 [21] = experiment: as above
# Procedure, shortened: as §1
# HCC1937 [22] = experiment: as above
# Procedure, shortened: as §1
# CAL-148 [23] = experiment: as above
# Procedure, shortened: as §1
# MFM-223 [24] = experiment: as above
# Procedure, shortened: as §1
# CAL-85-1 [25] = experiment: as above
# Procedure, shortened: as §1
# CAL-51 [26] = experiment: as above
# Procedure, shortened: as §1
# HCC1599 [27] = experiment: as above
# Procedure, shortened: as §1
# HDQ-P1 [28] = experiment: as above
# Procedure, shortened: as §1
# BT-474 [29] = experiment: as above
# Procedure, shortened: as §1
# MCF-10A [30] = experiment: as above
# Procedure, shortened: as §1
# HCC1143 [31] = experiment: as above
# Procedure, shortened: as §1
# DU-4475 [32] = experiment: as above
# Procedure, shortened: as §1
smiles,measurement,setting,value
c1ccc([C@H]2CN3CCSC3=N2)cc1 [Levamisole],drug sensitivity score,MDA-MB-468 [1],0
same,drug sensitivity score,CAL-120 [2],0
same,drug sensitivity score,BT-549 [3],0
same,drug sensitivity score,MDA-MB-453 [4],0
same,drug sensitivity score,MDA-MB-436,0
same,drug sensitivity score,SK-BR-3,0
same,drug sensitivity score,MDA-MB-231 [5],0
same,drug sensitivity score,HCC1937 [6],0
same,drug sensitivity score,Hs578T,0
same,drug sensitivity score,CAL-148 [7],0
same,drug sensitivity score,MFM-223 [8],0
same,drug sensitivity score,CAL-85-1 [9],0
same,drug sensitivity score,CAL-51 [10],0
same,drug sensitivity score,HCC1599 [11],0
same,drug sensitivity score,HDQ-P1 [12],0
same,drug sensitivity score,BT-474 [13],0
same,drug sensitivity score,MCF-10A [14],0
same,drug sensitivity score,HCC1143 [15],0
same,drug sensitivity score,DU-4475 [16],0
same,drug sensitivity score,MDA-MB-468 [17],0
same,drug sensitivity score,CAL-120 [18],0
same,drug sensitivity score,BT-549 [19],0
same,drug sensitivity score,MDA-MB-453 [20],1.72
same,drug sensitivity score,MDA-MB-231 [21],1.47
same,drug sensitivity score,HCC1937 [22],0
same,drug sensitivity score,CAL-148 [23],0
same,drug sensitivity score,MFM-223 [24],0
same,drug sensitivity score,CAL-85-1 [25],0
same,drug sensitivity score,CAL-51 [26],0
same,drug sensitivity score,HCC1599 [27],0
same,drug sensitivity score,HDQ-P1 [28],2.62
same,drug sensitivity score,BT-474 [29],0
same,drug sensitivity score,MCF-10A [30],0
same,drug sensitivity score,HCC1143 [31],0
same,drug sensitivity score,DU-4475 [32],0
